The test addresses T1, CCR2 (Homo sapiens, UniProt P41597).
T1 sequence (P41597 1-360 isoform P41597-2): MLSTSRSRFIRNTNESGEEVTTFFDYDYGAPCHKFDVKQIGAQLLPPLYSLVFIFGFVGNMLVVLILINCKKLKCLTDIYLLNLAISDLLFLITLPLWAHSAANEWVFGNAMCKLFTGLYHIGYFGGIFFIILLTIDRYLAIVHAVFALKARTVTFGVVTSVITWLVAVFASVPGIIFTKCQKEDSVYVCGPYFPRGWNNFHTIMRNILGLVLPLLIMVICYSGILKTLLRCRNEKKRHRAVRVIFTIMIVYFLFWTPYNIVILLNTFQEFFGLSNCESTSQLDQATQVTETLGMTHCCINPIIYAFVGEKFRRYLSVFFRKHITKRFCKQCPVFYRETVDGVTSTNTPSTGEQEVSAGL
The test can be described thus: MCP-1 Receptor Binding Assay in THP-1 Cells. The note with it: for inhibition at 25 µM: MCP-1 binding to CCR2, test concentration of 25 μM, unless indicated otherwise, read-out: % Inhibition Ligand Binding; for IC50: THP-1 cells, 0.5 nM 125I labeled MCP-1, 2 hours at 30° C., read-out: Mean Ligand Binding IC50 (inhibition of MCP-1 binding to CCR2). Summed up:
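THP-1 cells; bound radioactivity collected on filter plates and counted by scintillation. Buffer-only blanks subtracted, drug-treated values compared with vehicle; nonspecific binding defined with 1 μM unlabeled MCP-1.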

Data on 32 compounds can be found in US7799824B2, “Quaternary salt CCR2 antagonists” (OraPharma, Inc., priority 2004, dated 2010).

For `C[N+](C)(Cc1ccc(NC(=O)C2=Cc3cc(C(F)(F)F)ccc3OC2)cc1)C1CCCCC1` [Cpd 125, cyclohexyl-dimethyl-{4-[(6-trifluoromethyl-2H-chromene-3-carbonyl)-amino]-benzyl}-ammonium iodide], the inhibition at 25 µM came out at 100%.

Regarding `C[N+](C)(Cc1ccc(NC(=O)C2=Cc3cccc(F)c3OC2)cc1)C1CCCCC1` [Cpd 126, cyclohexyl-{4-[(8-fluoro-2H-chromene-3-carbonyl)-amino]-benzyl}-dimethyl-ammonium iodide], the IC50 is 910 nM.

`Cc1ccc2c(c1)OCC(C(=O)Nc1ccc(C[N+](C)(C)C3CCCCC3)cc1)=C2` [Cpd 127, cyclohexyl-dimethyl-{4-[(7-methyl-2H-chromene-3-carbonyl)-amino]-benzyl}-ammonium iodide]: the IC50 came out at 80 nM.

Regarding `COc1ccc2c(c1)OCC(C(=O)Nc1ccc(C[N+](C)(C)C3CCCCC3)cc1)=C2` [Cpd 128, cyclohexyl-{4-[(7-methoxy-2H-chromene-3-carbonyl)-amino]-benzyl}-dimethyl-ammonium iodide], the IC50 stood at 600 nM.

On to `CC(C)(C)c1ccc2c(c1)C=C(C(=O)Nc1ccc(C[N+](C)(C)C3CCCCC3)cc1)CO2` [Cpd 129, {4-[(6-tert-butyl-2H-chromene-3-carbonyl)-amino]-benzyl}-cyclohexyl-dimethyl-ammonium iodide], for which the half-inhibitory concentration (IC50) was 150 nM.

For `C[N+](C)(Cc1ccc(NC(=O)C2=Cc3cc(C(F)(F)F)ccc3OC2)cc1)C1CCSC1` (centres unmarked) [Cpd 130, dimethyl-(tetrahydro-thiophen-3-yl)-{4-[(6-trifluoromethyl-2H-chromene-3-carbonyl)-amino]-benzyl}-ammonium iodide], the concentration for half-maximal inhibition (IC50) was 300 nM.

Take `C[N+](C)(Cc1ccc(NC(=O)C2=Cc3cccc(C(F)(F)F)c3OC2)cc1)C1CCCCC1` [Cpd 134, cyclohexyl-dimethyl-{4-[(8-trifluoromethyl-2H-chromene-3-carbonyl)-amino]-benzyl}-ammonium iodide]: the 50% inhibitory concentration (IC50) was 470 nM.

`C[N+](C)(Cc1ccc(NC(=O)C2=Cc3c(ccc4ccccc34)OC2)cc1)C1CCOCC1` [Cpd 135, {4-[(3H-benzo[f]chromene-2-carbonyl)-amino]-benzyl}-dimethyl-(tetrahydro-pyran-4-yl)-ammonium iodide]: the half-maximal inhibitory concentration (IC50) came to 910 nM.

Consider `C[N+]1(Cc2ccc(NC(=O)C3=Cc4c(ccc5ccccc45)OC3)cc2)CCCC1` [Cpd 136, 1-{4-[(3H-benzo[f]chromene-2-carbonyl)-amino]-benzyl}-1-methyl-pyrrolidinium iodide], for which the IC50 came out at 4600 nM.

On to `C[N+](C)(Cc1ccc(NC(=O)C2=Cc3c(ccc4ccccc34)OC2)cc1)C1CCCCC1` [Cpd 137, {4-[(3H-benzo[f]chromene-2-carbonyl)-amino]-benzyl}-cyclohexyl-dimethyl-ammonium iodide], for which the half-inhibitory concentration (IC50) was 80 nM.

For the compound `C[N+](C)(Cc1ccc(NC(=O)C2=Cc3c(ccc4ccccc34)OC2)cc1)C1CCSCC1` [Cpd 138, {4-[(3H-benzo[f]chromene-2-carbonyl)-amino]-benzyl}-dimethyl-(tetrahydro-thiopyran-4-yl)-ammonium iodide], the IC50 worked out at 2400 nM.

As for `C[N+]1(Cc2ccc(NC(=O)C3=Cc4c(ccc5ccccc45)OC3)cc2)CCOCC1` [Cpd 139, 4-{4-[(3H-benzo[f]chromene-2-carbonyl)-amino]-benzyl}-4-methyl-morpholin-4-ium iodide], the 50% inhibitory concentration (IC50) stood at 9800 nM.

Take `C[N+](C)(Cc1ccc(NC(=O)C2=Cc3c(ccc4ccccc34)OC2)cc1)CC1CCOCC1` [Cpd 140, {4-[(3H-benzo[f]chromene-2-carbonyl)-amino]-benzyl}-dimethyl-(tetrahydro-pyran-4-ylmethyl)-ammonium iodide]: the 50% inhibitory concentration (IC50) stood at 1000 nM.

On to `C[N+](C)(Cc1ccc(CNC(=O)C2=Cc3c(ccc4ccccc34)OC2)cc1)C1CCOCC1` [Cpd 141, (4-{[(3H-benzo[f]chromene-2-carbonyl)-amino]-methyl}-benzyl)-dimethyl-(tetrahydro-pyran-4-yl)-ammonium iodide], for which the inhibition at 25 µM was -21%.

Take `C[N+](C)(Cc1ccc(CNC(=O)C2=Cc3cc(Br)ccc3CCC2)cc1)C1CCOCC1` [Cpd 142, (4-{[(3-bromo-8,9-dihydro-7H-benzocycloheptene-6-carbonyl)-amino]-methyl}-benzyl)-dimethyl-(tetrahydro-pyran-4-yl)-ammonium iodide]: the inhibition at 25 µM is -18%.

On to `C[N+](C)(Cc1ccc(NC(=O)C2=Cc3cc(Br)ccc3CCC2)cc1)C1CCOCC1` [Cpd 143, {4-[(3-bromo-8,9-dihydro-7H-benzocycloheptene-6-carbonyl)-amino]-benzyl}-dimethyl-(tetrahydro-pyran-4-yl)-ammonium iodide], for which the IC50 is 7 nM.

In the case of `C[N+](C)(Cc1ccc(NC(=O)C2=Cc3cc(Br)ccc3CCC2)cc1)C1CCCCC1` [Cpd 144, {4-[(3-bromo-8,9-dihydro-7H-benzocycloheptene-6-carbonyl)-amino]-benzyl}-cyclohexyl-dimethyl-ammonium iodide], the IC50 is 330 nM.

In the case of `C[N+]1(Cc2ccc(NC(=O)C3=Cc4ccccc4CCC3)cc2)CCCC1` [Cpd 145, 1-{4-[(8,9-dihydro-7H-benzocycloheptene-6-carbonyl)-amino]-benzyl}-1-methyl-pyrrolidinium iodide], the inhibition at 25 µM came out at 36%.

On to `C[N+](C)(Cc1ccc(NC(=O)C2=Cc3ccccc3CCC2)cc1)C1CCCCC1` [Cpd 146, cyclohexyl-{4-[(8,9-dihydro-7H-benzocycloheptene-6-carbonyl)-amino]-benzyl}-dimethyl-ammonium iodide], for which the half-maximal inhibitory concentration (IC50) turned out to be 710 nM.

In the case of `C[N+](C)(Cc1ccc(NC(=O)C2=Cc3ccccc3CCC2)cc1)C1CCOCC1` [Cpd 147, {4-[(8,9-dihydro-7H-benzocycloheptene-6-carbonyl)-amino]-benzyl}-dimethyl-(tetrahydro-pyran-4-yl)-ammonium iodide], the half-maximal inhibitory concentration (IC50) worked out at 1200 nM.

Consider `C[N+](C)(Cc1ccc(CNC(=O)C2=Cc3ccccc3CCC2)cc1)C1CCOCC1` [Cpd 148, (4-{[(8,9-dihydro-7H-benzocycloheptene-6-carbonyl)-amino]-methyl}-benzyl)-dimethyl-(tetrahydro-pyran-4-yl)-ammonium iodide], for which the inhibition at 25 µM was 7%.

For `Cc1oc(-c2ccccc2)cc1C(=O)NCc1ccc(C[N+](C)(C)C2CCOCC2)cc1` [Cpd 149, dimethyl-(4-{[(2-methyl-5-phenyl-furan-3-carbonyl)-amino]-methyl}-benzyl)-(tetrahydro-pyran-4-yl)-ammonium iodide], the inhibition at 25 µM is 58%.

For `Cc1oc(-c2ccc(Cl)cc2)cc1C(=O)NCc1ccc(C[N+](C)(C)C2CCOCC2)cc1` [Cpd 150, [4-({[5-(4-chloro-phenyl)-2-methyl-furan-3-carbonyl]-amino}-methyl)-benzyl]-dimethyl-(tetrahydro-pyran-4-yl)-ammonium iodide], the inhibition at 25 µM came to 27%.

Consider `C[N+](C)(Cc1ccc(NC(=O)c2cc3ccccc3o2)cc1)C1CCOCC1` [Cpd 152, {4-[(benzofuran-2-carbonyl)-amino]-benzyl}-dimethyl-(tetrahydro-pyran-4-yl)-ammonium iodide], for which the IC50 turned out to be 1600 nM.

For the compound `C[N+](C)(Cc1ccc(NC(=O)c2cc(-c3ccc(Cl)cc3)oc2C(F)(F)F)cc1)C1CCCCC1` [Cpd 154, (4-{[5-(4-chloro-phenyl)-2-trifluoromethyl-furan-3-carbonyl]-amino}-benzyl)-cyclohexyl-dimethyl-ammonium iodide], the IC50 amounted to 4600 nM.

Regarding `C[N+](C)(Cc1ccc(NC(=O)c2cc3cc(Cl)ccc3o2)cc1)C1CCOCC1` [Cpd 155, {4-[(5-chloro-benzofuran-2-carbonyl)-amino]-benzyl}-dimethyl-(tetrahydro-pyran-4-yl)-ammonium iodide], the IC50 stood at 490 nM.

For `C[N+](C)(Cc1ccc(NC(=O)c2cc3cc(Cl)ccc3o2)cc1)C1CCCCC1` [Cpd 156, {4-[(5-chloro-benzofuran-2-carbonyl)-amino]-benzyl}-cyclohexyl-dimethyl-ammonium iodide], the IC50 was 180 nM.

For `C[N+](C)(Cc1ccc(NC(=O)c2cc3ccccc3o2)cc1)C1CCCCC1` [Cpd 157, {4-[(benzofuran-2-carbonyl)-amino]-benzyl}-cyclohexyl-dimethyl-ammonium iodide], the half-maximal inhibitory concentration (IC50) was 690 nM.

For `Cn1c(C(=O)Nc2ccc(C[N+](C)(C)C3CCOCC3)cc2)cc2ccccc21` [Cpd 158, dimethyl-{4-[(1-methyl-1H-indole-2-carbonyl)-amino]-benzyl}-(tetrahydro-pyran-4-yl)-ammonium iodide], the IC50 came out at 400 nM.

For `C[N+](C)(Cc1ccc(NC(=O)c2cc3cc(Cl)ccc3[nH]2)cc1)C1CCOCC1` [Cpd 159, {4-[(5-chloro-1H-indole-2-carbonyl)-amino]-benzyl}-dimethyl-(tetrahydro-pyran-4-yl)-ammonium iodide], the concentration for half-maximal inhibition (IC50) turned out to be 190 nM.

In the case of `C[N+](C)(Cc1ccc(NC(=O)c2cc3cc(Br)ccc3[nH]2)cc1)C1CCOCC1` [Cpd 160, {4-[(5-bromo-1H-indole-2-carbonyl)-amino]-benzyl}-dimethyl-(tetrahydro-pyran-4-yl)-ammonium iodide], the IC50 turned out to be 290 nM.

Take `Cn1cc(C(=O)Nc2ccc(C[N+](C)(C)C3CCOCC3)cc2)c2ccccc21` [Cpd 161, dimethyl-{4-[(1-methyl-1H-indole-3-carbonyl)-amino]-benzyl}-(tetrahydro-pyran-4-yl)-ammonium iodide]: the inhibition at 25 µM is 33%.

The inhibition is the change of the read-out against control, counted positive when it falls. In general, IC50 refers to the concentration that gives 50% inhibition.
